# Measured values as given in US7001600B1, “Identification of TRP-2 as a human tumor antigen recognized by cytotoxic T lymphocytes” (The United States of America as represented by the …, priority 1996, dated 2006).
# Entries after “also recorded” stand apart in the source; their conditions may differ.
# Columns and labels:
# Format in all cases: cell-based, human
# CTL clone 4 (TRP-2) [1] = assay: GM-CSF secretion assay: CTL clone 4 co-incubated with peptide-pulsed target cells; settings: for CTL clone 4 GM-CSF release: 586EBV cells pulsed with peptide at 0.5-g/ml for 90 min, in pg/mL
# Text: (§1) The T cell clones were generated by limiting dilution methods (at 1 cells/well) from the TIL586 cell line, and used allogenic PBL (1×10^3 cells/well) as feeder cells in RPMI1640 containing 10% human AB sera and 500 IU IL-2. After 12 days, T cell clones were then expanded in AIM-V medium containing 6000 IU/ml IL-2. To obtain an optimal expansion, we used the OKT3 expansion method described by S. Riddell (Walter et al. (1995)). Briefly, on day 0, 5×10^4 5×10^5 T cells were cocultured with HLA-A31 PBL (500:1, PBL: T cell ratio) and 586EBV B cells (100: 1, EBV: T cell ratio) in 25 ml RPMI 1640 containing 11% human sera, 30 ng/ml OKT3 antibody and antibiotics. On day 1, IL-2 was added at final concentration of 180 IU/ml. The media were changed with fresh media containing 11% human sera, IL-2 180 IU/ml on day 5. The media were then changed every three days. On day 12–14, T cells were harvested, counted and cryopreserved. TIL586 were isolated from the tumor specimen of a patient with metastatic melanoma and grown in medium containing IL-2 (6000 IU/ml) (Chiron) for 32–60 days as previously described [Topalian et al. 1988). TIL586 were predominantly CD8+ T cells. DNA transfection and GM-CSF assays were performed as previously described (Wang et al. 1995). Briefly, 200 ng of DNA encoding antigens and 50 ng of the HLA-A31 DNA were mixed with 2 μl of lipofectamine in […] of DMEM for 15–45 min. The DNA/lipofectamine mixture was then added to the COS-7 (5×104) cells and incubated overnight. The following day, cells were washed twice with DMEM medium. TIL586 was added at a concentration of 1×10^5 cells/well in AIM-V medium containing 120 IU/ml of IL-2. For T cell clones, only 1–2×10^4 cells/well were added. After 18–24 h incubation, 100 μl of supernatant was collected and GM-CSF was measured in a standard ELISA assay (R+D^− Systems, Minneapolis, Minn.). For testing peptides recognition, 586EBV or T2 cells were incubated with peptides at 37° C. for 90 min, and then washed three times with AIM-V medium containing 120 IU/ml of IL-2. T cells were added and incubated for an additional 18–24 h, 100 μl of supernatant was collected for GM-CSF assay.
# CTL clone 1 (TRP-1) [2] = assay: GM-CSF secretion assay: CTL clone 1 (TIL586-C1) co-incubated with peptide-pulsed target cells
# Text: as §1
# CTL clone 1 (TRP-1) [3] = assay: as above; settings: 1510EBV (HLA-A31+) cells pulsed with peptide at 1-g/ml for 90 min
# CTL clone 4 = assay: Cytotoxicity assay (Calcein AM): lysis of peptide-pulsed target cells by CTL clone 4; settings: for lysis of peptide-pulsed 586EBV B cells by CTL clone 4 (in words): different E:T ratios, peptide pulsed 90 min
# Protocol: Cytolysis was determined by use of Calcein AM (Molecular Probes, Eugene, Oreg.). Briefly, T2 or 586EBV B cells were pulsed with peptides in RPMI1640/5% FCS for 90 min. Tumor cells and the peptide pulsed EBV B cells were labelled with Calcein AM (15 μl of 1 mg/ml Calcein AM for every 1×10^6 cells) for 30 min at 37. C. Following incubation, cells were washed three times with AIM V/120 IU IL-2. 1×10^3 target cells were mixed with T cells at various E:T ratio. After 4 h incubation at 37° C., 5 μl of bovine hemoglobin quench solution containing ethidium bromide was added. The plate was read by Lambda scan. The percentage of lysis was calculated from the following equation: [1−(A−B)/(C−B)]×100 where A is the reading of non-lysed cells in the presence of T cells, B is background signal value and C is the maximum signal value from target cells.
# CTL clone 4 (TRP-2) [4] = assay: GM-CSF secretion assay: CTL clone 4 co-incubated with peptide-pulsed target cells; settings: 1510EBV (HLA-A31+) cells pulsed with peptide at 1-g/ml for 90 min
# [5] = 586EBV (HLA-A31+) cells pulsed with peptide at 1-g/ml for 90 min, T cells alone subtracted
# [6] = T2 (HLA-A31 negative) cells pulsed with peptide at 1-g/ml for 90 min
# [7] = 586EBV B cells pulsed with peptide, E:T ratio 40:1, 4 h
# [8] = peptide pulsed on 586EBV B cells
# [9] = titration, peptide pulsed on 586EBV B cells
sequence,measurement,setting,value
ALGPGRPYR,CTL clone 4 GM-CSF release,CTL clone 4 (TRP-2) [1]; T cells alone subtracted,<50
"FVWLHYYSVR [TRP185–194, synthetic TRP-2 peptide]",GSM-CSF release CTL clone 1 (TRP-1),CTL clone 1 (TRP-1) [2]; [5],< 50 pg/mL
same,GSM-CSF release CTL clone 4 (TRP-2),CTL clone 4 (TRP-2) [1]; [5],< 50 pg/mL
"GPAFVTWHR [TRP213–221, synthetic TRP-2 peptide]",GSM-CSF release CTL clone 1 (TRP-1),CTL clone 1 (TRP-1) [2]; [5],< 50 pg/mL
same,GSM-CSF release CTL clone 4 (TRP-2),CTL clone 4 (TRP-2) [1]; [5],< 50 pg/mL
KLGPGRPYR,CTL clone 4 GM-CSF release,CTL clone 4 (TRP-2) [1]; T cells alone subtracted,420
LAGPGRPYR,CTL clone 4 GM-CSF release,CTL clone 4 (TRP-2) [1]; T cells alone subtracted,550
LFGPGRPYR,CTL clone 4 GM-CSF release,CTL clone 4 (TRP-2) [1]; T cells alone subtracted,<50
LGPGRPYR,CTL clone 4 GM-CSF release,CTL clone 4 (TRP-2) [1]; T cells alone subtracted,<50
LIGPGRPYR,CTL clone 4 GM-CSF release,CTL clone 4 (TRP-2) [1]; T cells alone subtracted,2545
LLAPGRPYR,CTL clone 4 GM-CSF release,CTL clone 4 (TRP-2) [1]; T cells alone subtracted,<50
LLFPGRPYR,CTL clone 4 GM-CSF release,CTL clone 4 (TRP-2) [1]; T cells alone subtracted,<50
LLGPGAPYR,CTL clone 4 GM-CSF release,CTL clone 4 (TRP-2) [1]; T cells alone subtracted,<50
LLGPGFPYR,CTL clone 4 GM-CSF release,CTL clone 4 (TRP-2) [1]; T cells alone subtracted,738
LLGPGIPYR,CTL clone 4 GM-CSF release,CTL clone 4 (TRP-2) [1]; T cells alone subtracted,<50
LLGPGKPYR,CTL clone 4 GM-CSF release,CTL clone 4 (TRP-2) [1]; T cells alone subtracted,321
LLGPGRPYH,CTL clone 4 GM-CSF release,CTL clone 4 (TRP-2) [1]; T cells alone subtracted,<50
LLGPGRPYK,CTL clone 4 GM-CSF release,CTL clone 4 (TRP-2) [1]; T cells alone subtracted,2000
"LLGPGRPYR [TRP197–205, 9mer antigenic peptide of TRP-2, amino acids 197–205]",GSM-CSF release CTL clone 1 (TRP-1),CTL clone 1 (TRP-1) [3],< 50 pg/mL
same,GSM-CSF release CTL clone 1 (TRP-1),CTL clone 1 (TRP-1) [2]; [5],< 50 pg/mL
same,GSM-CSF release CTL clone 1 (TRP-1),CTL clone 1 (TRP-1) [2]; [6],< 50 pg/mL
same,peptide concentration at which lysis of target cells by CTL clone 4 was detected,CTL clone 4; [7],1 nM
same,peptide concentration of maximum lysis,CTL clone 4; [7],100 nM
same,lysis of peptide-pulsed 586EBV B cells by CTL clone 4 (in words),CTL clone 4,capable of lysing
same,GSM-CSF release CTL clone 4 (TRP-2),CTL clone 4 (TRP-2) [4],> 4000 pg/mL
same,GSM-CSF release CTL clone 4 (TRP-2),CTL clone 4 (TRP-2) [1]; [5],> 4000 pg/mL
same,CTL clone 4 GM-CSF release,CTL clone 4 (TRP-2) [1]; T cells alone subtracted,3450
same,GSM-CSF release CTL clone 4 (TRP-2),CTL clone 4 (TRP-2) [1]; [6],< 50 pg/mL
same,recognition by CTL clone 4 / stimulation of cytokine release (in words),CTL clone 4 (TRP-2) [1]; [8],strongly recognized; also recorded: most efficiently stimulated cytokine release from T cells
same,peptide concentration at which stimulation of GM-CSF release reached a plateau,CTL clone 4 (TRP-2) [1]; [9],500 nM
same,peptide concentration sufficient to stimulate GM-CSF release from T cell clone 4,CTL clone 4 (TRP-2) [1]; [9],1 nM
LLGPGRPYRA,CTL clone 4 GM-CSF release,CTL clone 4 (TRP-2) [1]; T cells alone subtracted,545
LLGPGVPYR,CTL clone 4 GM-CSF release,CTL clone 4 (TRP-2) [1]; T cells alone subtracted,<50
LLLPGRPYR,CTL clone 4 GM-CSF release,CTL clone 4 (TRP-2) [1]; T cells alone subtracted,<50
LSGPGRPYR,CTL clone 4 GM-CSF release,CTL clone 4 (TRP-2) [1]; T cells alone subtracted,3300
LVGPGRPYR,CTL clone 4 GM-CSF release,CTL clone 4 (TRP-2) [1]; T cells alone subtracted,2100
"MSLQRQFLR [ORF3P, control peptide derived from the alternative open reading frame of the TRP-1 gene, reference compound]",GSM-CSF release CTL clone 1 (TRP-1),CTL clone 1 (TRP-1) [3],> 6000 pg/mL
same,GSM-CSF release CTL clone 1 (TRP-1),CTL clone 1 (TRP-1) [2]; [5],> 8000 pg/mL
same,GSM-CSF release CTL clone 1 (TRP-1),CTL clone 1 (TRP-1) [2]; [6],< 50 pg/mL
same,lysis of peptide-pulsed 586EBV B cells by CTL clone 4 (in words),CTL clone 4,failed to lyse
same,GSM-CSF release CTL clone 4 (TRP-2),CTL clone 4 (TRP-2) [4],< 50 pg/mL
same,GSM-CSF release CTL clone 4 (TRP-2),CTL clone 4 (TRP-2) [1]; [5],< 50 pg/mL
same,GSM-CSF release CTL clone 4 (TRP-2),CTL clone 4 (TRP-2) [1]; [6],< 50 pg/mL
"RDTLLGPGR [TRP194–202, synthetic TRP-2 peptide]",GSM-CSF release CTL clone 1 (TRP-1),CTL clone 1 (TRP-1) [2]; [5],< 50 pg/mL
same,GSM-CSF release CTL clone 4 (TRP-2),CTL clone 4 (TRP-2) [1]; [5],< 50 pg/mL
RLGPGRPYR,CTL clone 4 GM-CSF release,CTL clone 4 (TRP-2) [1]; T cells alone subtracted,<50
TLLGPGRPYR [10mer extended byone amino acid at the N-terminus of TRP 197-205],CTL clone 4 GM-CSF release,CTL clone 4 (TRP-2) [1]; T cells alone subtracted,2100
same,"reactivity (GM-CSF release, CTL clone 4) relative to the parental 9mer LLGPGRPYR",CTL clone 4 (TRP-2) [1]; [8],about 60%
"VWLHYYSVR [TRP186–194, synthetic TRP-2 peptide]",GSM-CSF release CTL clone 1 (TRP-1),CTL clone 1 (TRP-1) [2]; [5],< 50 pg/mL
same,GSM-CSF release CTL clone 4 (TRP-2),CTL clone 4 (TRP-2) [1]; [5],< 50 pg/mL
